Results on 14 compounds are retold here after patent US9266840B2, “Bicyclic heterocyclic compound” (Astellas Pharma Inc., priority 2011, dated 2016).

The IC50 is the midpoint of a concentration-inhibition curve. The term inhibition denotes how much of the control response was suppressed.

SMILES strings stand for the structures. Where two headings read alike, the source gives them in different places.

Series [1] deals with spinal nerve ligation model. Put plainly: Test for spinal nerve ligation model (von Frey hair test). The format is in vivo, rats (SD, male). The following applies: 1 mg/kg orally, 1 hour before evaluation, threshold of 50% retraction response, pseudo-operation = 100%, solvent = 0%. On the procedure: Test Method 3: Test for Spinal Nerve Ligation Model This test was performed according to Pain, 1992, Vol. 50, p 355-363. The skin and muscle in the lumbar region of rats (SD, male, 5- to 6-week old) were excised under pentobarbital anesthesia, and a lumbar L6 transverse process was removed to expose lumbar nerves. L5 and L6 spinal nerves were ligated with a silk thread, and then the wound was sutured. The procedure was performed in the left side. In addition, in the case of pseudo-operation, the wound was sutured without performing nerve ligation. The drug efficacy was evaluated on the postoperative days 7 to 12 by von Frey hair test. The threshold of retraction response was calculated according to Journal of Neuroscience Methods, 1994, Vol. 53, p 55-63. By using 8 types of von Frey filaments (0.41 g to 15.14 g), the sole of the rat's hindlimb was stimulated, and the threshold of 50% retraction response was determined by an up-and-down method. […] The test substance was evaluated by calculating the improvement rate of the test substance-administered group, under the condition that the threshold of the procedure-performed limb of the pseudo-operation animal group was regarded as 100% and the threshold of the procedure-performed limb of the solvent-administered animal group having undergone operation was regarded as 0%.

Series [2] concerns model with fibromyalgia caused by repeated reserpine administration. Kind of series: Test for model with fibromyalgia caused by repeated reserpine administration (muscle tenderness threshold). Particulars: 10 mg/kg orally, calculated point in time 60 min, healthy rat = 100%, reserpine + solvent = 0%. The format is in vivo, rats (SD, male). On the procedure: Test Method 4: Test for Model with Fibromyalgia Caused by Repeated Reserpine Administration
This test was performed according to Pain, 2009, Vol. 146, p 26-33., by using rats (SD, male, 7-week old).
The threshold of muscle tenderness was measured according to the method of Schafers et al. (Pain, 2003, Vol. 104, p 579-588). A pressure stimulus slowly increasing up to 250 g was applied to the gastrocnemius muscle of the right lower leg of the rat. […] The measurement was performed 3 times for each point in time, and the average thereof was taken as a measured value.
A solvent (0.5% aqueous acetic acid) or reserpine (1 mg/kg) was subcutaneously administered to the back of the rat once a day for three days. The dose of both the solvent and reserpine administered was 1 mL per 1 kg of the body weight of the animal. 6 days after the beginning of the administration of the solvent or reserpine, the muscle tenderness threshold of each rat was measured, and the rats were grouped such that the difference in the average of threshold between the respective groups was reduced. The drug efficacy evaluation was performed on the next day. […] 30, 60, and 120 minutes after the administration, the muscle tenderness threshold was measured. For healthy rats, the drug was not administered, and only the muscle tenderness threshold was measured. […]

The test system of series [3] is spontaneous alternation behavior disorder induced by scopolamine. Kind of series: Test for spontaneous alternation behavior disorder induced by scopolamine (Y-maze). The following applies: oral administration, ddY mice, scopolamine 0.5 mg/kg i.p. The format is in vivo, male ddY mice. How it is done: Test Method 2: Test for Spontaneous Alternation Behavior Disorder Induced by Scopolamine Test drugs were orally administered to 5- to 7-week old male ddY mice. 10 minutes later, scopolamine was intraperitoneally administered to the animals at 0.5 mg/kg. 20 minutes later, the animal was put in Y-maze having arms with the same length and extending in three directions and allowed to freely explore for 8 minutes. During the exploration, spontaneous arm-alternating behavior (entering different arms 3 times consecutively) was counted to calculate the rate of spontaneous alternation (spontaneous alternation behavior/(number of times of entering−2)×100), thereby judging drug efficacy.

The target in series [4] is T1, recombinant human 11β-HSD1 (Homo sapiens, UniProt P28845).
T1 construct: made in house
T1 sequence (P28845 whole entry): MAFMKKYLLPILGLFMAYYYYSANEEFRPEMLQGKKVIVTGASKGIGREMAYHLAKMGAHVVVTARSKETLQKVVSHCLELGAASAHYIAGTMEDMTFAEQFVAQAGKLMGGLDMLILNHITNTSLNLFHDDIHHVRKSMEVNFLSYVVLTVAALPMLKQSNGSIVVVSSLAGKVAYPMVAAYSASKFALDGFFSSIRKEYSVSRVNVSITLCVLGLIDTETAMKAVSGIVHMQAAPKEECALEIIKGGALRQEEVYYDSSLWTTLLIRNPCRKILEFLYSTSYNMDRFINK
Put plainly: Human 11β-HSD1 inhibitory activity (HTRF cortisol detection). The format is biochemical. Particulars: recombinant human 11β-HSD1, 200 nM cortisone, 40 μM NADPH, 1 h room temperature. How it is done:
(§1) Test Method 1: Test for Measuring Human 11β-HSD1/11β-HSD2 Inhibitory Activity
(§2) 11β-HSD1 inhibitory activity was measured in the following order. In addition, an enzymatic reaction and assay was performed using a 384-well plate. The enzyme was prepared according to a document (Walker E. A. et al., Journal of Biological Chemistry, 2001, Vol. 276, p. 21343-21350). The reaction was performed in a manner in which various concentrations of test compounds were added to a reaction liquid including a 10 mM a phosphoric acid buffer (pH 6.6), 200 nM cortisone, 40 μM reduced nicotinamide adenine dinucleotide phosphate (NADPH), and recombinant human 11β-HSD1, followed by incubation for an hour at room temperature (10 μl/well). The test compound was dissolved in dimethylsulfoxide (DMSO), and the DMSO concentration was adjusted so as to be 1% in the reaction liquid. After the enzymatic reaction, cortisol was detected using Homogenous Time-Resolved Fluorescence (HTRF) to measure enzyme inhibitory activity. XL-665-labeled cortisol including 400 μM carbenoxolone and a cryptate-labeled cortisol antibody (CIS bio international) were added respectively to the plate at 5 μl/well, followed by incubation for 2 hours at room temperature, and then fluorescence intensity was measured using a fluorospectrometer (trade name: Discovery, manufactured by PerkinElmer Inc.), thereby calculating enzyme inhibitory activity from the ratio of fluorescence intensity between two wavelengths (665 nm/620 nm).
(§3) The results of measurement were calculated by obtaining the average of the values of three wells under the same condition. The ratio obtained when DMSO was added instead of the test compound was regarded as 0%, and the ratio obtained when 11β-HSD1 or 11β-HSD2 was not added was regarded as 100%, whereby a concentration at which the test compound suppresses the enzyme activity by 50% was calculated as IC50 of the inhibitory activity of the compound.
For orientation: TR-FRET usually uses a lanthanide donor and a delayed reading to cut background.

The target of series [5] is T2, recombinant human 11β-HSD2 (Homo sapiens, UniProt P80365).
T2 sequence (P80365 1-405): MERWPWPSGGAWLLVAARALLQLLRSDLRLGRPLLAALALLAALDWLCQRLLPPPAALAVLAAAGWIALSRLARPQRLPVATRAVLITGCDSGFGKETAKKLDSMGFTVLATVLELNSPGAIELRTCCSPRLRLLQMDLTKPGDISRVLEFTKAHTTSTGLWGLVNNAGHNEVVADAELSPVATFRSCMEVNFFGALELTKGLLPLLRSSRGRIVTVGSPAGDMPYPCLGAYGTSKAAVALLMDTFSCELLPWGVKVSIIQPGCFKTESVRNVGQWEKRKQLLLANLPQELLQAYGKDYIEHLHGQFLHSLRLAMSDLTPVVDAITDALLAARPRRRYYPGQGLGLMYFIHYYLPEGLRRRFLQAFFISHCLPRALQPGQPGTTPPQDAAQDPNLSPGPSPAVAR
Put plainly: Human 11β-HSD2 inhibitory activity (HTRF). The format is biochemical. The following applies: recombinant human 11β-HSD2, 200 nM cortisol, 200 μM NAD, 2 h 37° C. On the procedure: as §1, §2
11β-HSD2 inhibitory activity was measured in the same manner as in the measurement of the 11β-HSD1 inhibitory activity, except for the conditions of the enzymatic reaction. The enzymatic reaction was performed in the manner in which various concentrations of test substances were added to a reaction liquid including 40 mM tris-hydrochloric acid buffer (Tris-HCl) (pH 8.0), 200 nM cortisol, 200 μM nicotinamide adenine dinucleotide (NAD), and recombinant human 11β-HSD2, followed by incubation for 2 hours at 37° C. (10 μl/well).
as §3

A short description of series [6]: Pharmacokinetic test (plasma and brain concentration, LC-MS/MS). Particulars: male, mouse, po, mice, 1 mg/kg orally, an hour after administration. The format is in vivo. On the procedure: Test Method 5: Pharmacokinetic Test
A 0.5% methyl cellulose suspension including the test substance was orally administered to 5-week old male mice, and the blood and brain were collected after a certain time passed from the administration. The collected blood sample was treated with sodium heparin, and then the plasma was separated, thereby preparing a plasma sample. In addition, a phosphoric acid buffer (pH 7.0) was added to the collected brain sample, in an amount that was 4 times the weight of the brain, thereby preparing 20% brain homogenate. The concentration of the respective test substances in the plasma and brain was measured using LC-MS/MS. An hour after Example 8-1 was administered at 1 mg/kg, the concentration of the substance in the plasma was 153 ng/ml, and the concentration in the brain was 58 ng/ml.

Series [7] relates to cortisol in the brain homogenate. Put plainly: Pharmacokinetic test under cortisone load (brain cortisol by ELISA). The format is in vivo, male ddY mice. Particulars: Mus musculus; ddY mice, 1 mg/kg orally; cortisone 1 mg/kg i.p. after 30 min, brain collected 20 min later; read-out: inhibition rate (cortisol in brain). On the procedure: Test Method 6: Pharmacokinetic Test Under Cortisone Load
A 0.5% methyl cellulose solution or a 0.5% methyl cellulose suspension including the test substance was orally administered to 5-week old male ddY mice. After 30 minutes, cortisone was intraperitoneally administered at 1 mg/kg, and 20 minutes later, the brain was collected. A phosphoric acid buffer (pH 7.0) was added to the collected brain sample, in an amount that was 9 times the weight of the brain, thereby preparing 10% brain homogenate. The quantity of cortisol in the brain homogenate was determined by ELISA, and the inhibition rate resulting from the test substance was calculated, under the condition that the amount of cortisol produced from the mouse orally administered with 0.5% methyl cellulose was regarded as 100%.

In the case of `N#Cc1cccc(F)c1-c1ccc(C(=O)N(C2CC2)C2CCc3[nH]ncc3C2)cc1` (single isomer, unassigned; (-)) [Example 7-1, (−)-2′-cyano-N-cyclopropyl-6′-fluoro-N-(4,5,6,7-tetrahydro-1H-indazol-5-yl)biphenyl-4-carboxamide], the “Improvement rate % (applied dose)” value in series [1] is 52 (1 mg/kg) %. For the same compound, the “Maximum improvement rate % (applied dose)” value in series [2] is listed as 82 (10 mg/kg) %. For the same compound, the “Dose improving minimum spontaneous alternation rate” value in series [3] was determined as 1.0 mg/kg. The IC50 in series [4] was 0.018 µM; in series [5], more than 3 µM.
Turning to `CC(C)Oc1ccc(C(=O)N(C2CC2)C2CCc3[nH]ncc3C2)cc1` (single isomer, unassigned; (-)) [Example 8-1, (−)-N-cyclopropyl-4-isopropoxy-N-(4,5,6,7-tetrahydro-1H-indazol-5-yl)benzamide], the “Improvement rate % (applied dose)” value in series [1] is recorded as 73 (1 mg/kg) %. The “Maximum improvement rate % (applied dose)” value in series [2] is on record as 104 (10 mg/kg) %. Further, the “Dose improving minimum spontaneous alternation rate” value in series [3] amounted to 0.3 mg/kg. Also, the IC50 is 0.026 µM in series [4] and more than 30 µM in series [5]. The concentration at 1 h in series [6] (plasma, read-out: concentration of the substance in the plasma) stood at 153 ng/mL; in series [6] (brain homogenate, read-out: concentration in the brain), 58 ng/mL. In addition, in series [7], the inhibition at 1 mg/kg was 43%.
Regarding `N#Cc1ccccc1-c1ccc(C(=O)N(C2CC2)C2CCc3[nH]ncc3C2)cc1` (stereo not shown) [Example 1, 2′-cyano-N-cyclopropyl-N-(4,5,6,7-tetrahydro-1H-indazol-5-yl)biphenyl-4-carboxamide], the IC50 is 0.048 µM in series [4] and more than 30 µM in series [5].
Consider `COc1cc(OC(C)C)ccc1C(=O)N(C1CC1)C1CCc2[nH]ncc2C1` (stereo not shown) [Example 5, N-cyclopropyl-4-isopropoxy-2-methoxy-N-(4,5,6,7-tetrahydro-1H-indazol-5-yl)benzamide], for which the IC50 in series [4] stood at 0.056 µM.
As to `O=C(c1ccc(-c2ccccc2F)o1)N(C1CC1)C1CCc2[nH]ncc2C1` (stereo not shown) [Example 27], the figures for the IC50 in series [4] and in series [5] were 0.062 µM and more than 3 µM, respectively.
As to `Cc1cc(C(=O)N(C2CC2)C2CCc3n[nH]cc3C2)c(C)n1Cc1ccc(F)cc1F` (stereo not shown) [Example 30], the IC50 in series [4] is 0.028 µM; in series [5], more than 3 µM.
As to `Cn1ccc2c(C(=O)N(C3CC3)C3CCc4[nH]ncc4C3)cccc21` (stereo not shown) [Example 81], the IC50 in series [4] is 0.024 µM; in series [5] it was more than 30 µM.
For `COc1ccc(C(=O)N(C2CC2)C2CCc3[nH]ncc3C2)c2ccn(C)c12` (stereo not shown) [Example 132] the same measures were 0.038 µM and more than 30 µM.
For `CC(F)(F)CCCn1ncc2c(C(=O)N(C3CC3)C3CCc4[nH]ncc4C3)cccc21` (stereo not shown) [Example 159] the same measures were 0.04 µM and more than 30 µM.
Consider `N#Cc1cc(F)ccc1-c1ccc(C(=O)N(C2CC2)C2CCc3[nH]ncc3C2)cc1` (stereo not shown) [Example 176], for which the IC50 in series [4] amounted to 0.088 µM.
Still for that read-out and setting: next, `N#Cc1ccccc1-c1ccc(C(=O)N(C2CC2)C2CCc3[nH]ncc3C2)c(F)c1` (stereo not shown) [Example 190]: 0.025 µM.
Still for that read-out and setting: next, `O=C(c1ccc(-c2c(F)cccc2F)cc1)N(C1CC1)C1CCc2[nH]ncc2C1` (stereo not shown) [Example 216]: 0.043 µM.
Still for that read-out and setting: next, `O=C(c1ccc(-c2c(F)cncc2F)cc1)N(C1CC1)C1CCc2n[nH]cc2C1` (stereo not shown) [Example 228]: 0.053 µM; `CC(C)Cc1ccc(C(=O)N(C2CC2)C2CCc3[nH]ncc3C2)cc1` (stereo not shown) [Example 237]: 0.04 µM.
